Earlier results in PMC12080252, “Daphnia magna as an Alternative Model for (Simultaneous) Bioaccumulation and Chronic Toxicity Assessment—Controlled Exposure Study Indicates High Hazard of Heterocyclic PAHs” (Environmental Science & Technology, 2025).
Like-named read-outs stand apart in the source and are kept apart here.

What was measured:
[1] = Table S10; ref SI ref 23 (UK Environment Agency Report); cited from earlier work
[2] = system: fish; details: cited from earlier work
[3] = system: aryl hydrocarbon receptor (AhR); details: cited from earlier work
[4] = system: D. magna or D. pulex; details: cited from earlier work; for BCF (M of several values): ref SI refs 4, 5
[5] = system: D. magna; details: Table S1; footnote not given; cited from earlier work
[6] = D. magna or D. pulex, ref SI refs 8, 10

COP(=S)(OC)Oc1c(Cl)cc(C)cc1Cl [O-(2,6-Dichloro-4-methylphenyl) O,O-dimethyl ester, Phosphorothioic acid]
log KOW [1]: 4.56 | half-life ([2]; fish, Table S10, ref SI ref 23): 17.33 h | log BCFL5% ([2]; fish, Table S10, ref SI ref 23): 2.36 | log k2 ([2]; fish, Table S10, ref SI ref 23): -1.40 h-1

CCCCCCCCCCCCCOCCOCCOCCOCCOCCOCCOCCOCCO [Octaethylene glycol monotridecyl ether]
half-life ([2]; fish, Table S10, ref SI ref 23): 1.65 h | log BCFL5% ([2]; fish, Table S10, ref SI ref 23): 1.69 | log k2 ([2]; fish, Table S10, ref SI ref 23): -0.38 h-1

c1ccc2nc3ccccc3cc2c1 [acridine]
AhR agonism [3]: weak to moderate aryl hydrocarbon receptor (AhR) agonists | half-life [4, 6]: 0.32 h | log k2 [4, 6]: 0.33 h-1

c1ccc2cc3ccccc3cc2c1 [anthracene]
AhR-mediated toxicity [3]: do not trigger AhR-mediated toxicity | BCF (M of several values) ([4]; D. magna or D. pulex): 944 | half-life [4, 6]: 1.18 h | log k2 [4, 6]: -0.23 h-1

c1ccc2nc3ccc4ccccc4c3cc2c1 [benz(a)acridine]
lowest PNEC* [5]: 0.016 µg/L | half-life [4, 6]: 1.2 h | log k2 [4, 6]: -0.24 h-1

c1ccc2cc3c(ccc4ccccc43)cc2c1 [benz[a]anthracene]
log KOW [1]: 5.76

c1ccc2cc3c(cc2c1)sc1ccccc13 [benzo[b]naphtho[2,3-d]thiophene]
bioaccumulation in fish [2]: high bioaccumulation in fish

CC1(C)[C@H](C(=O)OCc2cccc(Oc3ccccc3)c2)[C@@H]1C=C(Cl)Cl [cis-Permethrin]
log KOW [1]: 7.43 | half-life ([2]; fish, Table S10, ref SI ref 23): 36.97 h | log BCFL5% ([2]; fish, Table S10, ref SI ref 23): 2.45 | log k2 ([2]; fish, Table S10, ref SI ref 23): -1.73 h-1

c1ccc2c(c1)Oc1ccccc1O2 [dibenzo[1,4]dioxane]
bioaccumulation in fish [2]: high bioaccumulation in fish

c1ccc2c(c1)ccc1c3ccc4ccccc4c3[nH]c21 [dibenzocarbazole, 13H-dibenzo[a,i]carbazole]
bioaccumulation in fish [2]: high bioaccumulation in fish | half-life [4, 6]: 9 h | log k2 [4, 6]: -1.11 h-1 | accumulation in water fleas ([4]; compared with fish): accumulate even more in water fleas

c1ccc2c(c1)oc1ccccc12 [dibenzofuran]
AhR agonism [3]: weak to moderate aryl hydrocarbon receptor (AhR) agonists

c1ccc2c(c1)sc1ccccc12 [dibenzothiophene]
lowest PNEC* [5]: 0.24 µg/L | bioaccumulation in fish [2]: high bioaccumulation in fish

c1ccc2c(c1)Cc1ccccc1-2 [fluorene]
AhR-mediated toxicity [3]: do not trigger AhR-mediated toxicity

c1ccc2cnccc2c1 [isoquinoline]
half-life [4, 6]: 0.04 h | log k2 [4, 6]: 1.26 h-1

c1ccc2ccccc2c1 [naphthalene]
AhR-mediated toxicity [3]: do not trigger AhR-mediated toxicity | half-life [4, 6]: 0.42 h | log k2 ([4]; in vivo): 0.22 h-1

c1cc2cccc3c4cccc5cccc(c(c1)c23)c54 [perylene]
half-life [4, 6]: 5.02 h | log k2 [4, 6]: -0.86 h-1

c1ccc2c(c1)ccc1ccccc12 [phenanthrene]
AhR-mediated toxicity [3]: do not trigger AhR-mediated toxicity | accumulation in fish versus invertebrates (Figure 3B) ([2]; in vivo): accumulated in fish but not in Daphnia and H. azteca | BCF (M of several values) ([4]; D. magna or D. pulex): 325 | log k2 [4, 6]: -0.27 h-1 | half-life ([4]; in vivo): 1.29 h

ClC(Cl)=C(c1ccc(Cl)cc1)c1ccc(Cl)cc1 [pp’DDE]
BCF (M of several values) ([2]; fish, ref SI refs 4, 7, 12): 54250

c1ccc2ncccc2c1 [quinoline]
BCF (M of several values) ([2]; in vivo): 2.5 | log BCFL5% ([2]; in vivo): 1.92

c1ccc2c(c1)Sc1ccccc1S2 [thianthrene]
bioaccumulation in fish [2]: high bioaccumulation in fish

c1ccc2c(c1)Cc1ccccc1S2 [thioxanthene]
lowest PNEC* [5]: 0.32 µg/L

c1ccc2c(c1)Cc1ccccc1O2 [xanthene]
AhR agonism [3]: weak to moderate aryl hydrocarbon receptor (AhR) agonists | bioaccumulation in fish ([2]; in vivo): high bioaccumulation in fish

Phenol, 4-nonyl-, branched,
log KOW [1]: 5.92 | half-life ([2]; fish, Table S10, ref SI ref 23): 9.90 h | log BCFL5% ([2]; fish, Table S10, ref SI ref 23): 2.58 | log k2 ([2]; fish, Table S10, ref SI ref 23): -1.15 h-1
